Data published in patent US5401777A, “Use of preparations of curcuma plants” (priority 1992, dated 1995).

What was measured:
stomach mucosa = details: oral, daily doses of 100 mg/kg over 6 days; Prasad et al. 1976; cited from earlier work
[1] = test system: formation of peroxidized arachidonic acid products; assay: inhibition of Fe/ascorbate-induced formation of peroxidized arachidonic acid products in the cell-free system; format: biochemical
Source text: (d) the formation of peroxidized arachidonic acid products in the cell-free system with an IC50 of approx. 1 μmol/l.

[2] = test system: experimental stomach ulcers; details: rats; cited from earlier work
[3] = test system: histamine-induced stomach ulcers; details: guinea pigs; Bhatia et al. 1964; cited from earlier work

For `COc1cc(/C=C/C(=O)CC(=O)/C=C/c2ccc(O)c(OC)c2)ccc1O` [curcumin], which “effect of high doses on the stomach mucosa” value (stomach mucosa) is on record?
The value was “damaged the stomach mucosa”.

And the “concentration in which the antioxidative effect is already achieved” value [1]?
The value was 1 μm.

What about the “effect on experimental stomach ulcers” value [2] of the same molecule?
Its value is “does not cure”.

What about the “protective effect against histamine-induced stomach ulcers” value [3] of the same molecule?
Its value is “did not find any protective effect”.
